From the supplement of paper PMC11424490
Where a name gives a salt, the structure may show the parent alone.

Experiments:
NCI-H2122 [1] = assay: combination cScore with sotorasib (Bliss gap around IC50) (%PoC); higher = stronger additive effect
Experimental: (§1)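 Combination screen of 179 inhibitors with the KRAS G12C inhibitor sotorasib (AMG510) in dose matrices, CellTiter-Glo readout in NCI-H2122 (72 h), SW837 (144 h) and NCI-H358 cells. The cScore is the mean Bliss-independence gap (expected minus observed viability, in %PoC) over a 3x3 field around the IC50s of both drugs. Positive means additive, and >~10 is stated as clear additive.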

SW837 [2] = assay: as above
Experimental: as §1

NCI-H2122 [3] = assay: combination cScore with adagrasib (Bliss gap around IC50) (%PoC); higher = stronger additive effect
Method in brief: (§2)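 The score averages the gap between expected and measured viability under Bliss independence, taken over a field around the IC50 of each single agent or, where an IC50 was not reached, at the highest concentrations. Viability came from CellTiter-Glo luminescence, normalised to vehicle wells as percent of control and fitted with four-parameter curves. NCI-H2122, NCI-H358 and SW837 cells were dosed in concentration matrices 24 h after seeding and grown for 72 h, or 144 h for SW837.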

SW837 [4] = assay: as above
Method in brief: as §2

Compound: CCCCCOC(=O)Nc1nc(=O)n([C@@H]2O[C@H](C)[C@@H](O)[C@H]2O)cc1F [Capecitabin] + C=CC(=O)N1CCN(c2nc(=O)n(-c3c(C)ccnc3C(C)C)c3nc(-c4c(O)cccc4F)c(F)cc23)[C@@H](C)C1 [sotorasib]
- combination cScore with sotorasib (NCI-H2122 [1]): 4.4
- combination cScore with sotorasib (SW837 [2]): 1.19

Compound: CN1CCN(c2ccc(-c3cccc(CN4CCOCC4)c3)cc2NC(=O)c2c[nH]c(=O)cc2C(F)(F)F)CC1 [OICR-9429] + C=CC(=O)N1CCN(c2nc(=O)n(-c3c(C)ccnc3C(C)C)c3nc(-c4c(O)cccc4F)c(F)cc23)[C@@H](C)C1 [sotorasib]
- combination cScore with sotorasib (NCI-H2122 [1]): 9.62
- combination cScore with sotorasib (SW837 [2]): 3.36

Compound: COc1cc([C@@H]2c3cc4c(cc3[C@@H](O[C@@H]3O[C@@H]5CO[C@@H](C)O[C@H]5[C@H](O)[C@H]3O)[C@H]3COC(=O)[C@H]23)OCO4)cc(OC)c1O [Etoposide] + C=CC(=O)N1CCN(c2nc(=O)n(-c3c(C)ccnc3C(C)C)c3nc(-c4c(O)cccc4F)c(F)cc23)[C@@H](C)C1 [sotorasib]
- combination cScore with sotorasib (NCI-H2122 [1]): 14.1
- combination cScore with sotorasib (SW837 [2]): 4.54

Compound: CN(C)CCCC(=O)Nc1n[nH]c2nnc(-c3ccccc3)cc12 + C=CC(=O)N1CCN(c2nc(=O)n(-c3c(C)ccnc3C(C)C)c3nc(-c4c(O)cccc4F)c(F)cc23)[C@@H](C)C1 [sotorasib]
- combination cScore with sotorasib (NCI-H2122 [1]): -11.8
- combination cScore with sotorasib (SW837 [2]): -4.53

Compound: CCC1=C[C@@H]2CN(C1)Cc1c([nH]c3ccccc13)[C@@](C(=O)OC)(c1cc3c(cc1OC)N(C)[C@H]1[C@@](O)(C(=O)OC)[C@H](OC(C)=O)[C@]4(CC)C=CCN5CC[C@]31[C@@H]54)C2 [Vinorelbine] + C=CC(=O)N1CCN(c2nc(=O)n(-c3c(C)ccnc3C(C)C)c3nc(-c4c(O)cccc4F)c(F)cc23)[C@@H](C)C1 [sotorasib]
- combination cScore with sotorasib (NCI-H2122 [1]): 1.79
- combination cScore with sotorasib (SW837 [2]): 4.13

Compound: CC(C)c1cc(-c2n[nH]c(=O)n2-c2ccc3c(ccn3C)c2)c(O)cc1O [Ganetespib] + C=CC(=O)N1CCN(c2nc(=O)n(-c3c(C)ccnc3C(C)C)c3nc(-c4c(O)cccc4F)c(F)cc23)[C@@H](C)C1 [sotorasib]
- combination cScore with sotorasib (NCI-H2122 [1]): -1.8
- combination cScore with sotorasib (SW837 [2]): 7.55

Compound: CN(C)c1ccccc1CN1CCCN(Cc2ccccc2N(C)C)C1c1ccncc1 [GANT61] + C=CC(=O)N1CCN(c2nc(=O)n(-c3c(C)ccnc3C(C)C)c3nc(-c4c(O)cccc4F)c(F)cc23)[C@@H](C)C1 [sotorasib]
- combination cScore with sotorasib (NCI-H2122 [1]): -3.17
- combination cScore with sotorasib (SW837 [2]): -1.32

Compound: NC(=O)c1ccc(-c2nc(-c3ccccn3)c(-c3ccc4c(c3)OCO4)[nH]2)cc1 + C=CC(=O)N1CCN(c2nc(=O)n(-c3c(C)ccnc3C(C)C)c3nc(-c4c(O)cccc4F)c(F)cc23)[C@@H](C)C1 [sotorasib]
- combination cScore with sotorasib (NCI-H2122 [1]): 3.33
- combination cScore with sotorasib (SW837 [2]): 4.91

Compound: O=c1cc(N2CCOCC2)oc2c(-c3cccc4c3sc3ccccc34)cccc12 [NU-7441] + C=CC(=O)N1CCN(c2nc(=O)n(-c3c(C)ccnc3C(C)C)c3nc(-c4c(O)cccc4F)c(F)cc23)[C@@H](C)C1 [sotorasib]
- combination cScore with sotorasib (NCI-H2122 [1]): 15
- combination cScore with sotorasib (SW837 [2]): 9.27

Compound: NC(=O)c1cnc(N[C@@H]2CCCC[C@@H]2N)nc1Nc1cccc(-n2nccn2)c1 + C=CC(=O)N1CCN(c2nc(=O)n(-c3c(C)ccnc3C(C)C)c3nc(-c4c(O)cccc4F)c(F)cc23)[C@@H](C)C1 [sotorasib]
- combination cScore with sotorasib (NCI-H2122 [1]): 7.42
- combination cScore with sotorasib (SW837 [2]): -0.31

Compound: CN1CC[C@H](c2c(O)cc(O)c3c(=O)cc(-c4ccccc4Cl)oc23)[C@H](O)C1 [Flavopiridol] + C=CC(=O)N1CCN(c2nc(=O)n(-c3c(C)ccnc3C(C)C)c3nc(-c4c(O)cccc4F)c(F)cc23)[C@@H](C)C1 [sotorasib]
- combination cScore with sotorasib (NCI-H2122 [1]): 6.54
- combination cScore with sotorasib (SW837 [2]): 1.46

Compound: N#CC[C@H](C1CCCC1)n1cc(-c2ncnc3[nH]ccc23)cn1 [Ruxolitinib] + C=CC(=O)N1CCN(c2nc(=O)n(-c3c(C)ccnc3C(C)C)c3nc(-c4c(O)cccc4F)c(F)cc23)[C@@H](C)C1 [sotorasib]
- combination cScore with sotorasib (NCI-H2122 [1]): 4.05
- combination cScore with sotorasib (SW837 [2]): 6.8

Compound: N.N.[Cl][Pt][Cl] [Cisplatin] + C=CC(=O)N1CCN(c2nc(=O)n(-c3c(C)ccnc3C(C)C)c3nc(-c4c(O)cccc4F)c(F)cc23)[C@@H](C)C1 [sotorasib]
- combination cScore with sotorasib (NCI-H2122 [1]): 4.22
- combination cScore with sotorasib (SW837 [2]): -10.2

Compound: CS(=O)(=O)c1ccc(-c2cnc(N)c(C(=O)Nc3ccccc3)n2)cc1 [VE-821] + C=CC(=O)N1CCN(c2nc(=O)n(-c3c(C)ccnc3C(C)C)c3nc(-c4c(O)cccc4F)c(F)cc23)[C@@H](C)C1 [sotorasib]
- combination cScore with sotorasib (NCI-H2122 [1]): 6.24
- combination cScore with sotorasib (SW837 [2]): 6.3

Compound: Cc1ccc(Nc2nccc(N(C)c3ccc4c(C)n(C)nc4c3)n2)cc1S(N)(=O)=O [Pazopanib] + C=CC(=O)N1CCN(c2nc(=O)n(-c3c(C)ccnc3C(C)C)c3nc(-c4c(O)cccc4F)c(F)cc23)[C@@H](C)C1 [sotorasib]
- combination cScore with sotorasib (NCI-H2122 [1]): 9.15
- combination cScore with sotorasib (SW837 [2]): 2.58

Compound: Cc1ccc(NC(=O)c2ccnc(C(F)(F)F)c2)cc1-c1cc(OCCO)nc(N2CCOCC2)c1 [LXH-254] + C=CC(=O)N1CCN(c2nc(=O)n(-c3c(C)ccnc3C(C)C)c3nc(-c4c(O)cccc4F)c(F)cc23)[C@@H](C)C1 [sotorasib]
- combination cScore with sotorasib (NCI-H2122 [1]): 7.11
- combination cScore with sotorasib (SW837 [2]): 5.53

Compound: Cc1ccc(NC(=O)c2ccc(CN3CCN(C)CC3)cc2)cc1Nc1nc(-c2cccnc2)cs1 [Masitinib] + C=CC(=O)N1CCN(c2nc(=O)n(-c3c(C)ccnc3C(C)C)c3nc(-c4c(O)cccc4F)c(F)cc23)[C@@H](C)C1 [sotorasib]
- combination cScore with sotorasib (NCI-H2122 [1]): 17.9
- combination cScore with sotorasib (SW837 [2]): -1.47

Compound: CN[C@@H](C)C(=O)N[C@H](C(=O)N1CCC[C@H]1c1nc(C(=O)c2ccc(F)cc2)cs1)C1CCCCC1 [LCL161] + C=CC(=O)N1CCN(c2nc(=O)n(-c3c(C)ccnc3C(C)C)c3nc(-c4c(O)cccc4F)c(F)cc23)[C@@H](C)C1 [sotorasib]
- combination cScore with sotorasib (NCI-H2122 [1]): 2.3
- combination cScore with sotorasib (SW837 [2]): -3.76

Compound: O=C(CCCCCCC(=O)Nc1ccccc1)NO [Vorinostat] + C=C(F)C(=O)N1CCN(c2nc(OC[C@@H]3CCCN3C)nc3c2CCN(c2cccc4cccc(Cl)c24)C3)C[C@@H]1CC#N [adagrasib]
- combination cScore with adagrasib (NCI-H2122 [3]): 1.67
- combination cScore with adagrasib (SW837 [4]): 14.9

Compound: Nc1nc(Nc2ccc3c(c2)CC[C@@H](N2CCCC2)CC3)nn1-c1cc2c(nn1)-c1ccccc1CCC2 [Bemcentinib] + C=C(F)C(=O)N1CCN(c2nc(OC[C@@H]3CCCN3C)nc3c2CCN(c2cccc4cccc(Cl)c24)C3)C[C@@H]1CC#N [adagrasib]
- combination cScore with adagrasib (NCI-H2122 [3]): -0.08
- combination cScore with adagrasib (SW837 [4]): -0.26

Compound: C[C@@H]1CCN(C(=O)CC#N)C[C@@H]1N(C)c1ncnc2[nH]ccc12 [Tofacitinib citrate] + C=C(F)C(=O)N1CCN(c2nc(OC[C@@H]3CCCN3C)nc3c2CCN(c2cccc4cccc(Cl)c24)C3)C[C@@H]1CC#N [adagrasib]
- combination cScore with adagrasib (NCI-H2122 [3]): -3.58
- combination cScore with adagrasib (SW837 [4]): 5.3

Compound: CC[C@H](C)C(=O)O[C@H]1C[C@@H](C)C=C2C=C[C@H](C)[C@H](CC[C@@H]3C[C@@H](O)CC(=O)O3)[C@H]21 [Lovastatin] + C=C(F)C(=O)N1CCN(c2nc(OC[C@@H]3CCCN3C)nc3c2CCN(c2cccc4cccc(Cl)c24)C3)C[C@@H]1CC#N [adagrasib]
- combination cScore with adagrasib (NCI-H2122 [3]): -4.64
- combination cScore with adagrasib (SW837 [4]): 1.03

Compound: CNC(=O)c1ccc(N2C(=S)N(c3ccc(C#N)c(C(F)(F)F)c3)C(=O)C2(C)C)cc1F [Enzalutamide] + C=C(F)C(=O)N1CCN(c2nc(OC[C@@H]3CCCN3C)nc3c2CCN(c2cccc4cccc(Cl)c24)C3)C[C@@H]1CC#N [adagrasib]
- combination cScore with adagrasib (NCI-H2122 [3]): 4.58
- combination cScore with adagrasib (SW837 [4]): 7.72

Compound: CC(C)Nc1cc(-c2c[nH]c(C(=O)N[C@H](CO)c3cccc(Cl)c3)c2)c(Cl)cn1 [Ulixertinib] + C=C(F)C(=O)N1CCN(c2nc(OC[C@@H]3CCCN3C)nc3c2CCN(c2cccc4cccc(Cl)c24)C3)C[C@@H]1CC#N [adagrasib]
- combination cScore with adagrasib (NCI-H2122 [3]): -12.2
- combination cScore with adagrasib (SW837 [4]): 2.22

Compound: CC(=O)O[C@H]1C(=O)[C@@]2(C)[C@H]([C@H](OC(=O)c3ccccc3)[C@]3(O)C[C@H](OC(=O)[C@H](O)[C@@H](NC(=O)c4ccccc4)c4ccccc4)C(C)=C1C3(C)C)[C@]1(OC(C)=O)CO[C@@H]1C[C@@H]2O [Paclitaxel] + C=C(F)C(=O)N1CCN(c2nc(OC[C@@H]3CCCN3C)nc3c2CCN(c2cccc4cccc(Cl)c24)C3)C[C@@H]1CC#N [adagrasib]
- combination cScore with adagrasib (NCI-H2122 [3]): 0.85
- combination cScore with adagrasib (SW837 [4]): 2.18

Compound: CC(C)(C)c1cc(NC(=O)Nc2ccc(-c3cn4c(n3)sc3cc(OCCN5CCOCC5)ccc34)cc2)no1 [Quizartinib] + C=C(F)C(=O)N1CCN(c2nc(OC[C@@H]3CCCN3C)nc3c2CCN(c2cccc4cccc(Cl)c24)C3)C[C@@H]1CC#N [adagrasib]
- combination cScore with adagrasib (NCI-H2122 [3]): -3.38
- combination cScore with adagrasib (SW837 [4]): 0.28

Compound: CC(O)(CS(=O)(=O)c1ccc(F)cc1)C(=O)Nc1ccc(C#N)c(C(F)(F)F)c1 (centres undefined) [Bicalutamide] + C=C(F)C(=O)N1CCN(c2nc(OC[C@@H]3CCCN3C)nc3c2CCN(c2cccc4cccc(Cl)c24)C3)C[C@@H]1CC#N [adagrasib]
- combination cScore with adagrasib (NCI-H2122 [3]): 4.44
- combination cScore with adagrasib (SW837 [4]): 2.23
